Measured values taken from patent US8088822B2, “Use of fenretinide or bioactive derivatives thereof and pharmaceutical compositions comprising the same” (priority 2008, dated 2012).

Experiments:
[1] = tested on: CD34+CD38+ CML progenitor cells; assay: Apoptosis (Annexin V/7AAD, FACS) of CML progenitor cells; format: cell-based, human
Source text: Fresh bone marrow (BM) cells were obtained from 38 patients with CML and 5 non-leukemic donors, 25 AML, 17 ALL, and 8 normal specimens with informed consent according to the Declaration of Helsinki. Approval was obtained from Institutional Review Board at the School of Medicine in Shanghai Jiao Tong University. BM mononuclear cells were isolated by Ficoll density gradient centrifugation (Shanghai Second Reagent Factory, Shanghai, China). CD34^+ Cell were selected using EasySep® Human CD34 Positive Selection kit (Stem Cell Technologies, Vancouver, BC, Canada) according to the manufacturer's instructions. The purity of CD34 cells ranged between 92 and 98% in all samples detennined by flow cytometry. The CD34^+ cells were cultured in a serum-free medium (StemPro 34; Gibco BRL, Gaithersburg, Md.) supplemented with growth factors (PeproTech, London, United Kingdom) (20). The growth factors consisted of GM-CSF (200 pg/mL), G-CSF (1 ng/mL); SCF (200 pg/mL); LIF (50 pg/mL), MIP-1α (200 pg/mL) and IL-6 (1 ng/mL).
(§1) Primitive AML and CML subpopulations (CD34^+ cells) were identified using CD34-PE in combination with CD38-APC, and followed by double-labeling with 7AAD and Annexin V antibodies for apoptosis assessment. The CD34^+ cells were first stained with antibodies against the surface markers CD34-PE and CD38-APC (Beckman Coulter, Fullerton, Calif.) and incubated at room temperature for 15 minutes. Cells were then washed with cold PBS and resuspended in 200 μL annexin V 1×binding buffer (10 mM HEPES/NaOH, pH 7.4, 140 mM NaCl, 2.5 mM CaCl2), 5 μL AnnexinV-FITC (BD Phanningen, San Diego, Calif.) and 7-aminoactinomycin (7-AAD, 0.25 mg/mL) (Molecular Probes, Eugene, Oreg.). Subsequently, the samples were incubated at room temperature for 15 minutes and analyzed by flow cytometry.
It would be of significance to find out the subpopulations specifically targeted by fenretinide. We divided the CML patient specimens into mononuclear cells and CD34^+ cells. The CD34^+ CML cells are primitive cells including CML stem and progenitor cells. […]

[2] = tested on: CD34+CD38− acute leukemia stem and CD34+CD38+ progenitor population; assay: Apoptosis of acute leukemia (AML and ALL) stem and progenitor subpopulations; format: cell-based, human; conditions: AML and ALL specimens
Description: as §1
Furthermore, we examined whether fenretinide can preferentially target highly quiescent LSCs with CD34^+CD38^− immunophenotyte and leukemia progenitor cells with CD34^+CD38^+ for AML and most ALL specimens. Due to the difficulty of obtaining adequate normal CD34^+CD38^− cells, our apoptosis data of normal specimens came from CD34^− cell populations. Also, we used Ara-C and VCR (vincristine) as controls to test the apoptosis of leukemia stem cells, which were thought to be resistant to these chemotherapeutics.

[3] = tested on: HL60 cells; assay: Annexin V apoptosis assay in proliferating and serum-deprived quiescent HL60 cells; format: cell-based; conditions: 24 h
Description: HL60 cells were cultured in RPMI 1640 supplemented (i) with or (ii) without 10% fetal bovine serum to obtain proliferating and quiescent leukemia cells respectively. Serum-deprived quiescent leukemic cells and proliferating leukemic cells were then cultured in media containing 0.5% FBS, and treated with 1 μM and 2.5 μM fenretinide, and also with chemotherapeutics as controls, 20 μM idarubicin (IDA) and 5 μM cytarabine (Ara-C).
(§2) 2×10^5 cultured cells were used for evaluating apoptosis using an ApoAlert Annexin V-FITC Apoptosis Kit (BD Biosciences). Cells were washed once by PBS, resuspended in 200 μl Annexin-V binding buffer, and then stained with Annexin V-FITC 5 μl, PI 10 μl for 15 min at room temperature in the dark. Cells were subsequently analyzed by flow cytometry.
To examine the effects of fenretinide on proliferating and quiescent leukemia cells, HL60 cells were chosen as serum deprived quiescent leukemic cell model obtained when incubated in RPMI 1640 without serum for 48 h, with G0/G1 phase cells (being in quiescent state) accounting up to 59.9%. Serum-deprived quiescent leukemic cells and proliferating leukemic cells were then cultured in media containing 0.5% FBS, and treated with 1 μM and 2.5 μM fenretinide, and also with chemotherapeutics as controls, 20 μM idarubicin (IDA) and 5 μM cytarabine (Ara-C). […] Fenretinide induces intracellular production of ROS, lowers mitochondrial transmembrane potential (MTP), and eventually leads to apoptosis in a variety of malignancies. We measured MTP induced by fenretinide in proliferating and quiescent HL60 cells, as examined through rhodamine 123 and propidium iodide staining and followed by flow cytometry analysis. […] We further measured intracellular ROS abundance induced by fenretinide. […] After incubation with 1 μM and 2.5 μM fenretinide for 3 h, the ROS level of proliferating cells increased by 1.77 and 2.6 fold, respectively.

[4] = tested on: U937; assay: Apoptosis in AML cell line U937; format: cell-based; conditions: U937, within 48 hours, alone or combined
Description: as §2
There are two observations that drive us in further exploring alternative therapeutic combinations. As illustrated in Example 6, proteasome inhibitors can potentate fenretinide-induced apoptosis in leukemia. […] The apoptosis rates were quite low when treated alone within 48 hours (nearly 5%), and the number doubled when treated by fenretinide and MG132.

## CC1=C(/C=C/C(C)=C/C=C/C(C)=C/C(=O)Nc2ccc(O)cc2)C(C)(C)CCC1 [fenretinide, N-(4-hydroxyphenyl)retinamide]
[1]; 2 μM fenretinide
  apoptosis of CD34+CD38+ cells: 17.83%±6.01%
[1]; 4 μM fenretinide
  apoptosis of CD34+CD38+ cells: 30.60%±4.93%
[1]; 6 μM fenretinide
  apoptosis of CD34+CD38+ cells: 33.08%±19.43%
[2]
  apoptosis in CD34+CD38− acute leukemia stem population versus CD34+CD38+ progenitor population: more apoptosis
[3]; proliferating HL60 cells, 1 μM fenretinide
  percentage of apoptotic cells: 11.8%
[3]; proliferating HL60 cells, 2.5 μM fenretinide
  percentage of apoptotic cells: 36.8%
[3]; serum-deprived quiescent HL60 cells, 1 μM fenretinide
  percentage of apoptotic cells: 39.5%
[3]; serum-deprived quiescent HL60 cells, 2.5 μM fenretinide
  percentage of apoptotic cells: 52.7%
[4]
  apoptosis rate: ~5%
